Source: PubChem BioAssay (NCI)
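Exposure lasted 48 hours, with cells grown in 96-well plates and compounds tested at five concentrations. The concentration for 50% growth inhibition is given as GI50. The concentration for full growth arrest is given as TGI.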

Experiments:
Assay in all cases: growth of human tumour cells (NCI), 48 h
SNB-75 CNS = tested on: SNB-75 CNS
K-562 leukemia = tested on: K-562 leukemia
SK-MEL-2 melanoma = tested on: SK-MEL-2 melanoma
A549 NSCLC = tested on: A549 NSCLC
NCI-H460 lung = tested on: NCI-H460 lung
M14 melanoma = tested on: M14 melanoma
A498 renal = tested on: A498 renal
OVCAR-4 ovarian = tested on: OVCAR-4 ovarian
LOX IMVI melanoma = tested on: LOX IMVI melanoma
SK-OV-3 ovarian = tested on: SK-OV-3 ovarian
NCI-H522 lung = tested on: NCI-H522 lung
SK-MEL-28 melanoma = tested on: SK-MEL-28 melanoma
786-0 renal = tested on: 786-0 renal
CAKI-1 renal = tested on: CAKI-1 renal
HOP-62 NSCLC = tested on: HOP-62 NSCLC
SF-295 CNS = tested on: SF-295 CNS
COLO 205 colon = tested on: COLO 205 colon
PC-3 prostate = tested on: PC-3 prostate
OVCAR-8 ovarian = tested on: OVCAR-8 ovarian
SW-620 colon = tested on: SW-620 colon
U251 CNS = tested on: U251 CNS
DU-145 prostate = tested on: DU-145 prostate
SNB-19 CNS = tested on: SNB-19 CNS
NCI-H23 lung = tested on: NCI-H23 lung
UACC-62 melanoma = tested on: UACC-62 melanoma
MDA-MB-435 = tested on: MDA-MB-435
KM12 colon = tested on: KM12 colon
T-47D breast = tested on: T-47D breast
SK-MEL-5 melanoma = tested on: SK-MEL-5 melanoma
HS 578T breast = tested on: HS 578T breast
HCC-2998 colon = tested on: HCC-2998 colon
RPMI-8226 leukemia = tested on: RPMI-8226 leukemia
IGROV1 ovarian = tested on: IGROV1 ovarian
HCT-15 colon = tested on: HCT-15 colon
ACHN renal = tested on: ACHN renal
SN12C renal = tested on: SN12C renal
NCI/ADR-RES ovarian = tested on: NCI/ADR-RES ovarian
EKVX NSCLC = tested on: EKVX NSCLC
SF-539 CNS = tested on: SF-539 CNS
UACC-257 melanoma = tested on: UACC-257 melanoma
SR leukemia = tested on: SR leukemia
UO-31 renal = tested on: UO-31 renal
RXF 393 renal = tested on: RXF 393 renal
OVCAR-3 ovarian = tested on: OVCAR-3 ovarian
MALME-3M melanoma = tested on: MALME-3M melanoma
BT-549 breast = tested on: BT-549 breast
MDA-MB-231 breast = tested on: MDA-MB-231 breast
TK-10 renal = tested on: TK-10 renal
MOLT-4 leukemia = tested on: MOLT-4 leukemia
MCF7 breast = tested on: MCF7 breast
HOP-92 NSCLC = tested on: HOP-92 NSCLC
HL-60(TB) leukemia = tested on: HL-60(TB) leukemia
HCT-116 colon = tested on: HCT-116 colon
SF-268 CNS = tested on: SF-268 CNS
OVCAR-5 ovarian = tested on: OVCAR-5 ovarian
NCI-H226 lung = tested on: NCI-H226 lung
HT29 colon = tested on: HT29 colon
CCRF-CEM leukemia = tested on: CCRF-CEM leukemia

With `CC(C)(C)[Si](C)(C)OC1[C@@H](O[Si](C)(C)C(C)(C)C)[C@@H](CNC(=O)NC(=O)NC(=O)CCl)O[C@H]1n1cnc2c(NC(=O)Nc3ccccc3)ncnc21` (stereo partly specified) the GI50 (SNB-75 CNS) was 5.84 µM, the TGI (SNB-75 CNS) was 13.9 µM and the GI50 (K-562 leukemia) was 2.56 µM. It also gave a TGI (K-562 leukemia) of 7.51 µM, a GI50 (SK-MEL-2 melanoma) of 8.62 µM and a TGI (SK-MEL-2 melanoma) of 17.6 µM. It also gave a GI50 (A549 NSCLC) of 2.26 µM, a TGI (A549 NSCLC) of 8.92 µM and a GI50 (NCI-H460 lung) of 2.23 µM. It also gave a TGI (NCI-H460 lung) of 12.1 µM, a GI50 (M14 melanoma) of 5.34 µM and a TGI (M14 melanoma) of 11.8 µM. It also gave a GI50 (A498 renal) of 6.46 µM, a TGI (A498 renal) of 13.3 µM and a GI50 (OVCAR-4 ovarian) of 3.31 µM. For the same compound, the TGI (OVCAR-4 ovarian) was 10.5 µM, the GI50 (LOX IMVI melanoma) was 0.236 µM and the TGI (LOX IMVI melanoma) was 0.52 µM. The GI50 (SK-OV-3 ovarian) was 9.51 µM, the TGI (SK-OV-3 ovarian) was 17.5 µM and the GI50 (NCI-H522 lung) was 0.282 µM. For the same compound, the TGI (NCI-H522 lung) was 0.572 µM, the GI50 (SK-MEL-28 melanoma) was 8.78 µM and the TGI (SK-MEL-28 melanoma) was 17.8 µM. It also gave a GI50 (786-0 renal) of 1.3 µM, a TGI (786-0 renal) of 4.76 µM and a GI50 (CAKI-1 renal) of 2.2 µM. It also gave a TGI (CAKI-1 renal) of 9.42 µM, a GI50 (HOP-62 NSCLC) of 1.66 µM and a TGI (HOP-62 NSCLC) of 4.8 µM. The GI50 (SF-295 CNS) was 4.91 µM, the TGI (SF-295 CNS) was 15 µM and the GI50 (COLO 205 colon) was 6.3 µM. The TGI (COLO 205 colon) was 13 µM, the GI50 (PC-3 prostate) was 1.1 µM and the TGI (PC-3 prostate) was 3.93 µM. It also gave a GI50 (OVCAR-8 ovarian) of 0.955 µM, a TGI (OVCAR-8 ovarian) of 3.77 µM and a GI50 (SW-620 colon) of 3.52 µM. The TGI (SW-620 colon) was 11.6 µM, the GI50 (U251 CNS) was 1.56 µM and the TGI (U251 CNS) was 4.22 µM. It also gave a GI50 (DU-145 prostate) of 7.88 µM, a TGI (DU-145 prostate) of 16.4 µM and a GI50 (SNB-19 CNS) of 15.7 µM. For the same compound, the TGI (SNB-19 CNS) was 48.6 µM, the GI50 (NCI-H23 lung) was 1.57 µM and the TGI (NCI-H23 lung) was 6.59 µM. The GI50 (UACC-62 melanoma) was 8.41 µM, the TGI (UACC-62 melanoma) was 18.6 µM and the GI50 (MDA-MB-435) was 6.61 µM. For the same compound, the TGI (MDA-MB-435) was 17.6 µM, the GI50 (KM12 colon) was 1.84 µM and the TGI (KM12 colon) was 6.12 µM. It also gave a GI50 (T-47D breast) of 8.59 µM, a TGI (T-47D breast) of 17.5 µM and a GI50 (SK-MEL-5 melanoma) of 8.21 µM. For the same compound, the TGI (SK-MEL-5 melanoma) was 15 µM, the GI50 (HS 578T breast) was 4.52 µM and the TGI (HS 578T breast) was 20.6 µM. The GI50 (HCC-2998 colon) was 8.74 µM, the TGI (HCC-2998 colon) was 18.6 µM and the GI50 (RPMI-8226 leukemia) was 1.56 µM. For the same compound, the TGI (RPMI-8226 leukemia) was 5.95 µM, the GI50 (IGROV1 ovarian) was 0.361 µM and the TGI (IGROV1 ovarian) was 1.33 µM. It also gave a GI50 (HCT-15 colon) of 9.28 µM, a TGI (HCT-15 colon) of 22.2 µM and a GI50 (ACHN renal) of 5.03 µM. For the same compound, the TGI (ACHN renal) was 12.2 µM, the GI50 (SN12C renal) was 3.69 µM and the TGI (SN12C renal) was 10.6 µM. It also gave a GI50 (NCI/ADR-RES ovarian) of 6.45 µM, a TGI (NCI/ADR-RES ovarian) of 15.9 µM and a GI50 (EKVX NSCLC) of 1.69 µM. For the same compound, the TGI (EKVX NSCLC) was 6.54 µM, the GI50 (SF-539 CNS) was 8.82 µM and the TGI (SF-539 CNS) was 16.1 µM. For the same compound, the GI50 (UACC-257 melanoma) was 5.64 µM, the TGI (UACC-257 melanoma) was 13.2 µM and the GI50 (SR leukemia) was 0.226 µM. For the same compound, the TGI (SR leukemia) was 0.81 µM, the GI50 (UO-31 renal) was 0.959 µM and the TGI (UO-31 renal) was 1.89 µM. It also gave a GI50 (RXF 393 renal) of 2.13 µM, a TGI (RXF 393 renal) of 6.88 µM and a GI50 (OVCAR-3 ovarian) of 1.82 µM. It also gave a TGI (OVCAR-3 ovarian) of 4.87 µM, a GI50 (MALME-3M melanoma) of 1.34 µM and a TGI (MALME-3M melanoma) of 3.64 µM. It also gave a GI50 (BT-549 breast) of 6.57 µM, a TGI (BT-549 breast) of 13.1 µM and a GI50 (MDA-MB-231 breast) of 1.31 µM. The TGI (MDA-MB-231 breast) was 3.76 µM, the GI50 (TK-10 renal) was 2.42 µM and the TGI (TK-10 renal) was 7.81 µM. It also gave a GI50 (MOLT-4 leukemia) of 1.17 µM, a TGI (MOLT-4 leukemia) of 2.53 µM and a GI50 (MCF7 breast) of 3.76 µM. The TGI (MCF7 breast) was 11.9 µM, the GI50 (HOP-92 NSCLC) was 0.842 µM and the TGI (HOP-92 NSCLC) was 1.98 µM. The GI50 (HL-60(TB) leukemia) was 1.45 µM, the TGI (HL-60(TB) leukemia) was 3.22 µM and the GI50 (HCT-116 colon) was 1.85 µM. It also gave a TGI (HCT-116 colon) of 7.41 µM, a GI50 (SF-268 CNS) of 4.51 µM and a TGI (SF-268 CNS) of 14 µM. It also gave a GI50 (OVCAR-5 ovarian) of 6.41 µM, a TGI (OVCAR-5 ovarian) of 14.1 µM and a GI50 (NCI-H226 lung) of 8.67 µM. For the same compound, the TGI (NCI-H226 lung) was 15.9 µM, the GI50 (HT29 colon) was 1.43 µM and the TGI (HT29 colon) was 3.67 µM. The GI50 (CCRF-CEM leukemia) was 0.127 µM and the TGI (CCRF-CEM leukemia) was 0.334 µM.
